ChEMBL document CHEMBL5579815, “Novel angiogenesis inhibitors with superoxide anion radical amplification effect: Surmounting the Achilles' heels of angiogenesis inhibitors and photosensitizers” (Eur J Med Chem, 2024)
Calls of active or inactive are those of the source. The calls are words filed in the database; no cut-off is given here.

What was measured:
[1] = Induction of ROS generation in methanol solution assessed as increase in superoxide anion radical level by measuring fold increase in DHR123 fluorescence intensity at 10 uM irradiated with 650 nm 10 mW/cm2 light for upto 15 mins by DHR123 probe based fluorescence spectra analysis relative to control; type: functional
A549 = assay: (§1) Cytotoxicity against human A549 cells assessed as reduction in cell viability at 0.008 to 1 uM preincubated for 24 hrs under hypoxic condition followed by media removal and irradiated with 650 nm 10 mW/cm2 light for 15 mins under hypoxic condition prior to media replacement and measured after 24 hrs by MTT assay; type: functional, cell-based; details: dose 0.008-1 µM
U-87 MG = assay: as §1, with “U87” for “A549”; type: functional, cell-based; details: U-87MG ATCC, dose 0.008-1 µM
SK-MEL-28 [2] = assay: (§2) Induction of apoptosis in human SK-MEL-28 cells assessed as viable cells at 0.5 uM preincubated for 24 hrs under hypoxic condition followed by media removal and irradiated with 650 nm 10 mW/cm2 light for 15 mins under hypoxic condition by Annexin V-FITC/propidium iodide staining based flow cytometry (reference value: 93.62%); type: functional; details: SK-MEL-28, light or radiation study, read-out: Activity
SK-MEL-28 [3] = assay: as §2, with “early apoptotic” for “viable”, “1.8%)” for “93.62%)”; type: functional
SK-MEL-28 [4] = assay: as §2, with “late apoptotic” for “viable”, “1.95%)” for “93.62%)”; type: functional
SK-MEL-28 [5] = assay: as §2, with “1” for “0.5”; type: functional; details: SK-MEL-28, light or radiation study, read-out: Activity
SK-MEL-28 [6] = assay: as §2, with “late apoptotic” for “viable”, “normoxic” for “hypoxic”, “1.95%)” for “93.62%)”; type: functional
SK-MEL-28 [7] = assay: as §2, with “necrotic” for “viable”, “normoxic” for “hypoxic”, “2.63%)” for “93.62%)”; type: functional
SK-MEL-28 [8] = assay: as §2, with “necrotic” for “viable”, “1” for “0.5”, “normoxic” for “hypoxic”, “2.63%)” for “93.62%)”; type: functional
SK-MEL-28 [9] = assay: as §2, with “necrotic” for “viable”, “2” for “0.5”, “normoxic” for “hypoxic”, “2.63%)” for “93.62%)”; type: functional
SK-MEL-28 [10] = assay: Induction of apoptosis in human SK-MEL-28 cells preincubated for 24 hrs under normoxic condition followed by media removal and irradiated with 650 nm 10 mW/cm2 light for 15 mins under normoxic condition by Annexin V-FITC/propidium iodide staining based flow cytometry; type: functional, cell-based; details: dose 0.5-2 µM

## CCN(CC)c1ccc2nc3c4ccccc4/c(=N\CCCCCCNC(=O)c4cc(Oc5ccc(NC(=O)Nc6ccc(Cl)c(C(F)(F)F)c6)cc5)ccn4)cc-3sc2c1
[1]
  fold change (FC): 6.6
A549
  Activity: Active
U-87 MG
  Activity: Active
SK-MEL-28 [2]
  viability at 0.5 µM: 78.3%
SK-MEL-28 [3]
  Activity: 3.13%
SK-MEL-28 [4]
  Activity: 7.05%
SK-MEL-28 [5]
  viability at 1 µM: 69%
SK-MEL-28 [6]
  Activity: 2.86%
SK-MEL-28 [7]
  Activity: 11.1%
SK-MEL-28 [8]
  Activity: 23.01%
SK-MEL-28 [9]
  Activity: 6.54%
SK-MEL-28 [10]
  Activity: Dose-Dependent Effect
